Measurements published in ChEMBL document CHEMBL1781873, “Synthesis and antibacterial property of pyrrolopyrano quinolinones and pyrroloquinolines” (2011).
Values after ≈ are worked out from the molar mass of the structure shown. Active and inactive are the calls of the source. The rule behind the calls is not given here.

Key:
Salmonella typhi [1] = assay: Antibacterial activity against Salmonella typhi at 10 ug after 24 hrs by disc diffusion assay; format: functional, Salmonella enterica subsp. enterica serovar Typhi; details: Salmonella enterica, read-out: IZ
Klebsiella pneumoniae [2] = assay: Antibacterial activity against Klebsiella pneumoniae at 15 ug after 24 hrs by disc diffusion assay; format: functional; details: read-out: IZ
Escherichia coli [3] = assay: Inhibition of DNA gyrase mRNA expression in Escherichia coli measured up to 24 hrs by RT-PCR; format: functional, organism-based
Escherichia coli [4] = assay: Antibacterial activity against Escherichia coli after 18 to 20 hrs by broth micro dilution assay; format: functional
Bacillus subtilis [5] = assay: Antibacterial activity against Bacillus subtilis at 20 ug after 24 hrs by disc diffusion assay; format: functional; details: read-out: IZ
Pseudomonas aeruginosa [6] = assay: Antibacterial activity against Pseudomonas aeruginosa after 18 to 20 hrs by broth micro dilution assay; format: functional
Bacillus subtilis [7] = assay: Antibacterial activity against Bacillus subtilis after 18 to 20 hrs by broth micro dilution assay; format: functional
Pseudomonas aeruginosa [8] = assay: Antibacterial activity against Pseudomonas aeruginosa at 20 ug after 24 hrs by disc diffusion assay; format: functional; details: read-out: IZ
Staphylococcus aureus [9] = assay: Antibacterial activity against Staphylococcus aureus at 5 ug after 24 hrs by disc diffusion assay; format: functional; details: read-out: IZ
Escherichia coli [10] = assay: Inhibition of Escherichia coli DNA gyrase -mediated DNA relaxation using pBR322 DNA as substrate at […] after 1 hrs by agarose gel electrophoresis
Pseudomonas aeruginosa [11] = assay: Antibacterial activity against Pseudomonas aeruginosa at 5 ug after 24 hrs by disc diffusion assay; format: functional; details: read-out: IZ
Salmonella typhi [12] = assay: Antibacterial activity against Salmonella typhi at 5 ug after 24 hrs by disc diffusion assay; format: functional, Salmonella enterica subsp. enterica serovar Typhi; details: Salmonella enterica, read-out: IZ
Salmonella typhi [13] = assay: Antibacterial activity against Salmonella typhi after 18 to 20 hrs by broth micro dilution assay; format: functional, Salmonella enterica subsp. enterica serovar Typhi; details: Salmonella enterica
Bacillus subtilis [14] = assay: Antibacterial activity against Bacillus subtilis at 15 ug after 24 hrs by disc diffusion assay; format: functional; details: read-out: IZ
Klebsiella pneumoniae [15] = assay: Antibacterial activity against Klebsiella pneumoniae at 5 ug after 24 hrs by disc diffusion assay; format: functional; details: read-out: IZ
Bacillus subtilis [16] = assay: Antibacterial activity against Bacillus subtilis at 10 ug after 24 hrs by disc diffusion assay; format: functional; details: read-out: IZ
Klebsiella pneumoniae [17] = assay: Antibacterial activity against Klebsiella pneumoniae at 10 ug after 24 hrs by disc diffusion assay; format: functional; details: read-out: IZ
Pseudomonas aeruginosa [18] = assay: Antibacterial activity against Pseudomonas aeruginosa at 25 ug after 24 hrs by disc diffusion assay; format: functional; details: read-out: IZ
Escherichia coli [19] = assay: Inhibition of Escherichia coli DNA gyrase assessed as inhibition of DNA supercoiling activity using pBR322 DNA as substrate at […] after 3 hrs by agarose gel electrophoresis
Klebsiella pneumoniae [20] = assay: Antibacterial activity against Klebsiella pneumoniae after 18 to 20 hrs by broth micro dilution assay; format: functional
Pseudomonas aeruginosa [21] = assay: Antibacterial activity against Pseudomonas aeruginosa at 15 ug after 24 hrs by disc diffusion assay; format: functional; details: read-out: IZ
Pseudomonas aeruginosa [22] = assay: Antibacterial activity against Pseudomonas aeruginosa at 10 ug after 24 hrs by disc diffusion assay; format: functional; details: read-out: IZ
Salmonella typhi [23] = assay: Antibacterial activity against Salmonella typhi at 25 ug after 24 hrs by disc diffusion assay; format: functional, Salmonella enterica subsp. enterica serovar Typhi; details: Salmonella enterica, read-out: IZ
Staphylococcus aureus [24] = assay: Antibacterial activity against Staphylococcus aureus at 15 ug after 24 hrs by disc diffusion assay; format: functional; details: read-out: IZ
Staphylococcus aureus [25] = assay: Antibacterial activity against Staphylococcus aureus after 18 to 20 hrs by broth micro dilution assay; format: functional
Escherichia coli [26] = assay: Antibacterial activity against Escherichia coli at 20 ug after 24 hrs by disc diffusion assay; format: functional; details: read-out: IZ
Staphylococcus aureus [27] = assay: Antibacterial activity against Staphylococcus aureus at 20 ug after 24 hrs by disc diffusion assay; format: functional; details: read-out: IZ
Escherichia coli [28] = assay: Antibacterial activity against Escherichia coli at 5 ug after 24 hrs by disc diffusion assay; format: functional; details: read-out: IZ
Escherichia coli [29] = assay: Antibacterial activity against Escherichia coli at 10 ug after 24 hrs by disc diffusion assay; format: functional; details: read-out: IZ
Staphylococcus aureus [30] = assay: Antibacterial activity against Staphylococcus aureus at 25 ug after 24 hrs by disc diffusion assay; format: functional; details: read-out: IZ
Klebsiella pneumoniae [31] = assay: Antibacterial activity against Klebsiella pneumoniae at 20 ug after 24 hrs by disc diffusion assay; format: functional; details: read-out: IZ
Bacillus subtilis [32] = assay: Antibacterial activity against Bacillus subtilis at 25 ug after 24 hrs by disc diffusion assay; format: functional; details: read-out: IZ
Escherichia coli [33] = assay: Antibacterial activity against Escherichia coli at 25 ug after 24 hrs by disc diffusion assay; format: functional; details: read-out: IZ
Klebsiella pneumoniae [34] = assay: Antibacterial activity against Klebsiella pneumoniae at 25 ug after 24 hrs by disc diffusion assay; format: functional; details: read-out: IZ
Salmonella typhi [35] = assay: Antibacterial activity against Salmonella typhi at 15 ug after 24 hrs by disc diffusion assay; format: functional, Salmonella enterica subsp. enterica serovar Typhi; details: Salmonella enterica, read-out: IZ
Salmonella typhi [36] = assay: Antibacterial activity against Salmonella typhi at 20 ug after 24 hrs by disc diffusion assay; format: functional, Salmonella enterica subsp. enterica serovar Typhi; details: Salmonella enterica, read-out: IZ
Escherichia coli [37] = assay: Antibacterial activity against Escherichia coli at 15 ug after 24 hrs by disc diffusion assay; format: functional; details: read-out: IZ
Staphylococcus aureus [38] = assay: Antibacterial activity against Staphylococcus aureus at 10 ug after 24 hrs by disc diffusion assay; format: functional; details: read-out: IZ

## CCC1[C@@H]2Nc3ccc(Br)cc3C(c3ccccc3)[C@H]2CN1OS(=O)(=O)c1ccc(C)cc1 (some centres undefined)
Salmonella typhi [1]
  zone of inhibition at 10 µg/disc: 16 mm
Klebsiella pneumoniae [2]
  zone of inhibition at 15 µg/disc: 16 mm
Escherichia coli [3]
  inhibition of gyrase mRNA expression (active/not active): inactive
Escherichia coli [4]
  MIC50: 0.25 µg/mL (≈ 0.474 µM)
  MIC90: 0.5 µg/mL (≈ 0.948 µM)
Bacillus subtilis [5]
  zone of inhibition at 20 µg/disc: 10 mm
Pseudomonas aeruginosa [6]
  MIC50: 0.25 µg/mL (≈ 0.474 µM)
  MIC90: 0.5 µg/mL (≈ 0.948 µM)
Bacillus subtilis [7]
  MIC50: 0.25 µg/mL (≈ 0.474 µM)
  MIC90: 0.5 µg/mL (≈ 0.948 µM)
Pseudomonas aeruginosa [8]
  zone of inhibition at 20 µg/disc: 34 mm
Staphylococcus aureus [9]
  zone of inhibition at 5 µg/disc: 20 mm
Escherichia coli [10]
  inhibition: Active
Pseudomonas aeruginosa [11]
  zone of inhibition at 5 µg/disc: 24 mm
Salmonella typhi [12]
  zone of inhibition at 5 µg/disc: 10 mm
Salmonella typhi [13]
  MIC50: 0.25 µg/mL (≈ 0.474 µM)
  MIC90: 0.5 µg/mL (≈ 0.948 µM)
Bacillus subtilis [14]
  zone of inhibition at 15 µg/disc: 9 mm
Klebsiella pneumoniae [15]
  zone of inhibition at 5 µg/disc: 10 mm
Bacillus subtilis [16]
  zone of inhibition at 10 µg/disc: 8 mm
Klebsiella pneumoniae [17]
  zone of inhibition at 10 µg/disc: 14 mm
Pseudomonas aeruginosa [18]
  zone of inhibition at 25 µg/disc: 36 mm
Escherichia coli [19]
  DNA gyrase inhibition (active/inactive): Active
Klebsiella pneumoniae [20]
  MIC50: 0.25 µg/mL (≈ 0.474 µM)
  MIC90: 0.5 µg/mL (≈ 0.948 µM)
Pseudomonas aeruginosa [21]
  zone of inhibition at 15 µg/disc: 28 mm
Pseudomonas aeruginosa [22]
  zone of inhibition at 10 µg/disc: 26 mm
Salmonella typhi [23]
  zone of inhibition at 25 µg/disc: 24 mm
Staphylococcus aureus [24]
  zone of inhibition at 15 µg/disc: 26 mm
Staphylococcus aureus [25]
  MIC50: 0.25 µg/mL (≈ 0.474 µM)
  MIC90: 0.5 µg/mL (≈ 0.948 µM)
Escherichia coli [26]
  zone of inhibition at 20 µg/disc: 22 mm
Staphylococcus aureus [27]
  zone of inhibition at 20 µg/disc: 30 mm
Escherichia coli [28]
  zone of inhibition at 5 µg/disc: 12 mm
Escherichia coli [29]
  zone of inhibition at 10 µg/disc: 14 mm
Staphylococcus aureus [30]
  zone of inhibition at 25 µg/disc: 36 mm
Klebsiella pneumoniae [31]
  zone of inhibition at 20 µg/disc: 24 mm
Bacillus subtilis [32]
  zone of inhibition at 25 µg/disc: 11 mm
Escherichia coli [33]
  zone of inhibition at 25 µg/disc: 23 mm
Klebsiella pneumoniae [34]
  zone of inhibition at 25 µg/disc: 26 mm
Salmonella typhi [35]
  zone of inhibition at 15 µg/disc: 18 mm
Salmonella typhi [36]
  zone of inhibition at 20 µg/disc: 22 mm
Escherichia coli [37]
  zone of inhibition at 15 µg/disc: 16 mm
Staphylococcus aureus [38]
  zone of inhibition at 10 µg/disc: 24 mm
